Measured values taken from US9993478B2, “1-pyrazolyl-3-(4-((2-anilinopyrimidin-4-yl) oxy) napththalen-1-yl) ureas as P38 MAP knase inhibitors” (Respivert Ltd., priority 2011, dated 2018).

Legend:
d-U937 cells = assay: Cell viability: MTT assay; type: cell-based, human; conditions: 1 μg/mL
Procedure, shortened: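 Differentiated U937 cells exposed to compound at 1 or 10 μg/mL final, either 4 h in 5% FCS RPMI1640 or 24 h in 10% FCS RPMI1640. After medium replacement, MTT added 1 h, formazan dissolved in DMSO, A550 read. % viability loss vs 0.5% DMSO vehicle; apparent viability gain shown as negative %.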

A/J mice = assay: Cigarette smoke model; type: in vivo; conditions: tobacco smoke
Experimental: A/J mice (males, 5 weeks old) were exposed to cigarette smoke (4% cigarette smoke, diluted with air) for 30 min/day for 11 days using a Tobacco Smoke Inhalation Experiment System for small animals (Model SIS-CS; Sibata Scientific Technology, Tokyo, Japan). Test substances were administered intra-nasally (35 μL of solution in 50% DMSO/PBS) once daily for 3 days after the final cigarette smoke exposure. At 12 hr after the last dosing, each of the animals was anesthetized, the trachea cannulated and bronchoalveolar lavage fluid (BALF) was collected. The numbers of alveolar macrophages and neutrophils were determined by FACS analysis (EPICS® ALTRA II, Beckman Coulter, Inc., Fullerton, Calif., USA) using anti-mouse MOMA2 antibody (macrophage) or anti-mouse 7/4 antibody (neutrophil). BALF was centrifuged and the supernatant was collected. The level of keratinocyte chemoattractant (KC; CXCL1) in BALF was quantitated using a Quentikine® mouse KC ELISA kit (R&D systems, Inc., Minneapolis, Minn., USA).

Structure (SMILES)	MTT Assay Cell viability at time point in d-U937 Cells 4 h (d-U937 cells)	MTT Assay Cell viability at time point in d-U937 Cells 24 h (d-U937 cells)	Macrophage numbers in BALF % inhibition (A/J mice; 0.32 μg/mL intra-nasal)	Neutrophil numbers in BALF % inhibition (A/J mice; 0.32 μg/mL intra-nasal)	Macrophage numbers in BALF % inhibition (A/J mice; 1.6 μg/mL intra-nasal)	Neutrophil numbers in BALF % inhibition (A/J mice; 1.6 μg/mL intra-nasal)	Macrophage numbers in BALF % inhibition (A/J mice; 8.0 μg/mL intra-nasal)	Neutrophil numbers in BALF % inhibition (A/J mice; 8.0 μg/mL intra-nasal)	Macrophage numbers in BALF % inhibition (A/J mice; 40 μg/mL intra-nasal)	Neutrophil numbers in BALF % inhibition (A/J mice; 40 μg/mL intra-nasal)
Cc1ccc(-n2nc(C(C)(C)C)cc2NC(=O)Nc2ccc(Oc3ccnc(Nc4ccccc4)n3)c3ccccc23)cc1 [Example 1, 1-(3-(tert-Butyl)-1-(p-tolyl)-1H-pyrazol-5-yl)-3-(4-(2-(phenylamino)pyrimidin-4-yloxy)naphthalen-1-yl)urea]	−ve (−ve and +ve indicate the value is below and above respectively, the no significant effect threshold defined as 30% inhibition at 1 μg/mL at the time point indicated)	−ve (−ve and +ve indicate the value is below and above respectively, the no significant effect threshold defined as 30% inhibition at 1 μg/mL at the time point indicated)	11%	12%	28%	29%	43%	41%	64%	52%
Cc1ccc(-n2nc(C(C)(C)C)cc2NC(=O)Nc2ccc(Oc3ccnc(Nc4ccc(O)cc4)n3)c3ccccc23)cc1 [Example 9, 1-(3-(tert-butyl)-1-(p-tolyl)-1H-pyrazol-5-yl)-3-(4-((2-((4-hydroxyphenyl)amino)pyrimidin-4-yl)oxy)naphthalen-1-yl)urea]	−ve (−ve and +ve indicate the value is below and above respectively, the no significant effect threshold defined as 30% inhibition at 1 μg/mL at the time point indicated)	−ve (−ve and +ve indicate the value is below and above respectively, the no significant effect threshold defined as 30% inhibition at 1 μg/mL at the time point indicated)	–	–	–	–	–	–	–	–
